Source: patent US7183276B2, “Azole compounds” (Takeda Pharmaceutical Company Limited, priority 2002, dated 2007)

melting point	Structure (SMILES)
243 to 244 °C	O=C(CCCc1oc(-n2cnc3ccccc32)nc1-c1ccc(Cl)cc1)Nc1ccc(S(=O)(=O)Nc2nccs2)cc1 [Example 104, 4-[2-(1H-benzimidazol-1-yl)-4-(4-chlorophenyl)-5-oxazolyl]-N-(4-{[(2-thiazolyl)amino]sulfonyl}phenyl)butanamide]
170 to 171 °C	CC(C)(C)c1ccc(CNC(=O)CCc2oc(-n3cnc4ccccc43)nc2-c2ccc(Cl)cc2)cc1 [Example 144, 3-[2-(1H-benzimidazol-1-yl)-4-(4-chlorophenyl)-5-oxazolyl]-N-[4-tert-butylbenzyl]propionamide]
207 to 208 °C	NC(=O)CCc1oc(-c2ccccc2)nc1-c1ccc(Cl)cc1 [Example 43, 3-[4-(4-chlorophenyl)-2-phenyl-5-oxazolyl]propionamide]
127 to 128 °C	CCNC(=O)CCCc1oc(-c2ccccc2)nc1-c1ccc(Cl)cc1 [Example 49, N-ethyl-4-[4-(4-chlorophenyl)-2-phenyl-5-oxazolyl]butanamide]
211 to 212 °C	CCOP(=O)(Cc1ccc(NC(=O)/C=C/c2sc(-n3cnc4ccccc43)nc2C(C)(C)C)cc1)OCC
204 to 205 °C	O=C(CCc1oc(-c2ccccc2)nc1-c1ccc(Cl)cc1)Nc1cccnc1 [Example 41, 3-[4-(4-chlorophenyl)-2-phenyl-5-oxazolyl]-N-(3-pyridinyl)propionamide]
249 to 250 °C	CCOP(=O)(OCC)c1ccc(NC(=O)CCc2oc(-n3cnc4ccccc43)nc2-c2ccc(Cl)cc2)cc1
153 to 154 °C	COc1ccccc1NC(=O)CCc1oc(-n2ccnc2C)nc1-c1ccc(Cl)cc1 [Example 71, 3-[4-(4-chlorophenyl)-2-(2-methyl-1-imidazolyl)-5-oxazolyl]-N-(2-methoxyphenyl)propionamide]
98 to 99 °C	CCOP(=O)(Cc1ccc(NC(=O)CCc2oc(-n3cnc4ccccc43)nc2-c2cccc(Cl)c2)cc1)OCC
150 to 151 °C	O=C(CCc1oc(-n2cnc3ccccc32)nc1-c1ccc(Cl)cc1)NCCc1ccccn1 [Example 92, 3-[2-(1H-benzimidazol-1-yl)-4-(4-chlorophenyl)-5-oxazolyl]-N-[2-(2-pyridinyl)ethyl]propionamide]
158 to 159 °C	O=C(CCc1oc(-n2cnc3ccccc32)nc1-c1ccc(F)cc1)N1CCC(O)CC1 [Example 258, 1-{3-[2-(1H-benzoimidazol-1-yl)-4-(4-fluorophenyl)-5-oxazolyl]propanoyl}-4-piperidinol]
186 to 187 °C	N#Cc1ccccc1NC(=O)CCc1oc(-n2cnc3ccccc32)nc1-c1ccc(Cl)cc1 [Example 113, 3-[2-(1H-benzimidazol-1-yl)-4-(4-chlorophenyl)-5-oxazolyl]-N-(2-cyanophenyl)propionamide]
182 to 183 °C	CCS(=O)(=O)CCNC(=O)CCc1oc(-n2cnc3ccccc32)nc1-c1ccc(Cl)cc1 [Example 301, 3-[2-(1H-benzoimidazol-1-yl)-4-(4-chlorophenyl)-5-oxazolyl]-N-[2-(ethylsulfonyl)ethyl]propanamide]
229 to 230 °C	CCOP(=O)(Cc1ccc(NC(=O)/C=C/c2sc(-n3cnc4ccccc43)nc2-c2ccccc2)cc1)OCC
162 to 163 °C	CCOP(=O)(OCC)c1ccc(NC(=O)CCCc2oc(-n3cnc4ccccc43)nc2-c2ccc(Cl)cc2)cc1
233 to 234 °C	COC(=O)Cc1csc(NC(=O)CCc2oc(-n3cnc4ccccc43)nc2-c2ccc(Cl)cc2)n1 [Example 129, 3-[2-(1H-benzimidazol-1-yl)-4-(4-chlorophenyl)-5-oxazolyl]-N-{4-[(methoxycarbonyl)methyl]-2-thiazolyl}propionamide]
214 to 216 °C	O=C(CCc1oc(-n2cnc3ccccc32)nc1-c1ccc(Cl)cc1)NCc1ccncc1 [Example 155, 3-[2-(1H-benzimidazol-1-yl)-4-(4-chlorophenyl)-5-oxazolyl]-N-(4-pyridinylmethyl)propionamide]
181 to 182 °C	CCOC(=O)Cc1ccc(NC(=O)CCc2oc(-n3cnc4ccccc43)nc2-c2ccc(Cl)cc2)cc1 [Example 76, 3-[2-(1H-benzimidazol-1-yl)-4-(4-chlorophenyl)-5-oxazolyl]-N-[4-(ethoxycarbonylmethyl)phenyl]propionamide]
205 to 209 °C	CCOP(=O)(Cc1ccc(NC(=O)CCCc2oc(N3CCN(n4c(=O)[nH]c5ccccc54)CC3)nc2-c2ccc(Cl)cc2)cc1)OCC
≥ 300 °C (dec.)	NC(=O)c1ccc(NC(=O)CCc2sc(-c3ccccc3)nc2-c2ccc(Cl)cc2)cc1 [Example 67, 4-({3-[4-(4-chlorophenyl)-2-phenyl-5-thiazolyl]propanoyl}amino)benzamide]
153 to 154 °C	COP(=O)(Cc1ccc(NC(=O)CCc2oc(-c3ccccc3)nc2-c2ccc(Cl)cc2)cc1)OC
155 to 156 °C	CCOP(=O)(Cc1ccc(NC(=O)CCc2sc(-n3cnc4ccccc43)nc2C(C)(C)C)cc1)OCC

melting point	Structure (SMILES)
150 to 151 °C	CCOP(=O)(Cc1ccc(NC(=O)CCc2sc(-n3cnc4ccccc43)nc2-c2ccc(Cl)cc2)cc1)OCC
194 to 195 °C	O=C(CCc1oc(-n2cnc3ccccc32)nc1-c1ccc(Cl)cc1)Nc1ccc(CN2CCCCC2)cc1 [Example 88, 3-[2-(1H-benzimidazol-1-yl)-4-(4-chlorophenyl)-5-oxazolyl]-N-{4-[(1-piperidinyl)methyl]phenyl}propionamide]
127 to 128 °C	CCOP(=O)(Cc1ccc(NC(=O)CCCc2oc(N3CCCC3)nc2-c2ccc(Cl)cc2)cc1)OCC
188 to 189 °C	N#CCc1cccc(NC(=O)CCc2oc(-n3cnc4ccccc43)nc2-c2ccc(Cl)cc2)c1 [Example 110, 3-[2-(1H-benzimidazol-1-yl)-4-(4-chlorophenyl)-5-oxazolyl]-N-[3-(cyanomethyl)phenyl]propionamide]
164 to 165 °C	CCOP(=O)(Cc1ccc(NC(=O)CCc2oc(-c3cccs3)nc2-c2ccc(Cl)cc2)cc1)OCC
190 to 191 °C	O=C(CCc1oc(-n2cnc3ccccc32)nc1-c1ccc(Cl)cc1)NCc1ccc(Cl)c(Cl)c1 [Example 147, 3-[2-(1H-benzimidazol-1-yl)-4-(4-chlorophenyl)-5-oxazolyl]-N-(3,4-dichlorobenzyl)propionamide]
196 to 198 °C	O=C(CCCc1oc(-n2cnc3ccccc32)nc1-c1ccc(Cl)cc1)NCc1cc(Br)ccc1F [Example 195, 4-[2-(1H-benzimidazol-1-yl)-4-(4-chlorophenyl)-5-oxazolyl]-N-(5-bromo-2-fluorobenzyl)butanamide]
184 to 185 °C	CCOP(=O)(Cc1ccc(NC(=O)CCc2sc(NC(=O)c3ccccn3)nc2-c2ccc(Cl)cc2)cc1)OCC
114 to 116 °C	CCOP(=O)(Cc1ccc(NC(=O)CCCc2oc(N3CCN(c4ccccn4)CC3)nc2-c2ccc(Cl)cc2)cc1)OCC
168 to 169 °C	CCOP(=O)(Cc1ccc(NC(=O)CCCCc2sc(-n3cnc4ccccc43)nc2-c2ccc(Cl)cc2)cc1)OCC
206 to 208 °C	COc1cc(OC)c(CNC(=O)CCc2oc(-n3cnc4ccccc43)nc2-c2ccc(Cl)cc2)c(OC)c1 [Example 161, 3-[2-(1H-benzimidazol-1-yl)-4-(4-chlorophenyl)-5-oxazolyl]-N-(2,4,6-trimethoxybenzyl)propionamide]
232 to 233 °C	Cc1ncn(-c2nc(-c3ccc(Cl)cc3)c(CCC(N)=O)o2)c1C [Example 19, 3-[4-(4-chlorophenyl)-2-(4,5-dimethyl-1-imidazolyl)-5-oxazolyl]propionamide]
259 to 263 °C	O=C(CCc1oc(-n2cnc3ccccc32)nc1-c1ccc(Cl)cc1)Nc1ccc(C(F)(F)F)cc1 [Example 121, 3-[2-(1H-benzimidazol-1-yl)-4-(4-chlorophenyl)-5-oxazolyl]-N-[4-(trifluoromethyl)phenyl]propionamide]
136 to 137 °C	O=C(CCc1oc(-n2cnc3ccccc32)nc1-c1ccc(Cl)cc1)N1CCS(=O)(=O)C1 [Example 344, 3-{3-[2-(1H-benzoimidazol-1-yl)-4-(4-chlorophenyl)-5-oxazolyl]propanoyl}thiazolidine-1,1-dioxide]
193 to 194 °C	Cc1ccc(CNC(=O)CCc2oc(-c3ccccc3)nc2-c2ccc(Cl)cc2)cc1 [Example 166, 3-[4-(4-chlorophenyl)-2-phenyl-5-oxazolyl]-N-(4-methylbenzyl)propionamide]
187 to 188 °C	Cc1nccn1-c1nc(-c2ccc(Cl)cc2)c(CCC(=O)Nc2ccc(CC#N)cc2)o1 [Example 141, 3-[4-(4-chlorophenyl)-2-(2-methyl-1-imidazolyl)-5-oxazolyl]-N-[4-(cyanomethyl)phenyl]propionamide]
124 to 125 °C	Cc1nc(-c2ccc(Cl)cc2)c(CCC(=O)N2CCS(=O)(=O)CC2)o1 [Example 241, 4-{3-[4-(4-chlorophenyl)-2-methyl-5-oxazolyl]propanoyl}thiomorpholine-1,1-dioxide]
157 to 158 °C	O=C(CCc1oc(-n2cnc3ccccc32)nc1-c1ccccc1)N1CCC(O)CC1 [Example 247, 1-{3-[2-(1H-benzoimidazol-1-yl)-4-phenyl-5-oxazolyl]propanoyl}-4-piperidinol]
235 to 236 °C	N#CCc1ccccc1NC(=O)CCc1oc(-n2cnc3ccccc32)nc1-c1ccc(Cl)cc1 [Example 111, 3-[2-(1H-benzimidazol-1-yl)-4-(4-chlorophenyl)-5-oxazolyl]-N-[2-(cyanomethyl)phenyl]propionamide]
148 to 149 °C	CCOP(=O)(Cc1ccc(NC(=O)CCc2oc(-c3ccc(F)cc3)nc2-c2ccc(Cl)cc2)cc1)OCC
205 to 206 °C	O=C(CCc1oc(-n2cnc3ccccc32)nc1-c1ccc(Cl)cc1)NCc1ccc(Br)cc1 [Example 172, 3-[2-(1H-benzimidazol-1-yl)-4-(4-chlorophenyl)-5-oxazolyl]-N-(4-bromobenzyl)propionamide]
155 to 156 °C	Cc1ccc(Sc2nc(-c3ccc(Cl)cc3)c(CCC(N)=O)o2)cc1 [Example 10, 3-[4-(4-chlorophenyl)-2-[(4-methylphenyl)sulfanyl]-5-oxazolyl]propionamide]
